Consider two compounds from paper PMC12439480, “Dimeric CCK2R radiotheranostic tracers synergize with mTOR inhibition for enhanced tumor therapy” (Theranostics, 2025).

Each structure is given as a SMILES string. Numbered stars: 1 amine (or outer) side, 2 acyl side, 3 side chain; on linkers, the order of the positions; unused ones are H or OH. Square brackets hold non-standard residues; d marks the D form. Side chains are listed from the residue outwards. Peptide text beside a SMILES is read from it. * marks the point of attachment. DOTA = O=C(O)CN1CCN(CC(=O)O)CCN(CC(=O)*)CCN(CC(=O)O)CC1; d(γGlu) = O=C(O)[C@@H](CCC(=O)[*:2])N[*:1]; 1Nal = N[C@@H](Cc1cccc2ccccc12)C(=O)O; NMeNle = CCCC[C@H](NC)C(=O)O; PEG4 = NCCOCCOCCOCCOCCC(=O)O

What is called logD is the decadic logarithm of the distribution of all forms, ionised or not, between an organic phase and buffer at a given pH. Low readings indicate lower lipophilicity, high ones higher lipophilicity.

Data set [1] deals with AR42J tumor-bearing mice. Description: in vivo. More on the design: species or system BALB/c nude mice. Particulars: mouse, 1 h. In a few lines:
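AR42J xenografts in female BALB/c nude mice received 3.7 MBq iv of [^68Ga]Ga-DOTA-CCK2R-dimer (≈120 pmol) or [^68Ga]Ga-DOTA-CCK-66 (≈210 pmol), n = 3/group. Tissues were γ-counted at 30, 60 and 120 min p.i. and expressed as %ID/g. Blocking used 400-fold excess of lead compound co-injected, read at 1 h.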

The format of data set [2] is physicochemical. Particulars: pH 7.4. How it is done: The hydrophilicity of [^68Ga]Ga-DOTA-CCK2R-dimer and [^68Ga]Ga-DOTA-CCK-66 was assessed by determining their partition coefficients (Log D7.4) in a phosphate-buffered saline (PBS; pH 7.4)/n-octanol (1:1, v/v) system. Briefly, ~37 kBq of each radiotracer was mixed with 2 mL of the biphasic system, vortexed for 5 min, and centrifuged at 15,000 × g for 5 min. The radioactivity in 100 μL aliquots of each phase was quantified using a γ-counter (n = 5).

`CCCC[C@@H](C(=O)N[C@@H](CC(=O)O)C(=O)N[C@@H](Cc1cccc2ccccc12)C(N)=O)N(C)C(=O)[C@H](Cc1c[nH]c2ccccc12)NC(=O)CCOCCOCCOCCOCCNC(=O)CC[C@@H](NC(=O)CN1CCN(CC(=O)O)CCN(CC(=O)O)CCN(CC(=O)O)CC1)C(=O)O` [[68Ga]Ga-DOTA-CCK-66, metal not drawn, reference compound] ({DOTA-d(γGlu)-PEG4}-W[NMeNle]D[1Nal]-NH2): in data set [1], the Bladder uptake stood at 1.15 ± 1.21 %ID/g, the Kidney uptake is 12.68 ± 3.71 %ID/g, the Liver uptake is recorded as 0.96 ± 0.26 %ID/g and the Stomach uptake is given as 1.49 ± 0.64 %ID/g. In addition, the log distribution coefficient (logD) in data set [2] was -3.03 ± 0.03.
With `CCCC[C@@H](C(=O)N[C@@H](CC(=O)O)C(=O)N[C@@H](Cc1cccc2ccccc12)C(N)=O)N(C)C(=O)[C@H](Cc1c[nH]c2ccccc12)NC(=O)CCOCCOCCOCCOCCNC(=O)CC[C@@H](NC(=O)CC[C@H](NC(=O)CN1CCN(CC(=O)O)CCN(CC(=O)O)CCN(CC(=O)O)CC1)C(=O)N[C@H](CCC(=O)NCCOCCOCCOCCOCCC(=O)N[C@@H](Cc1c[nH]c2ccccc12)C(=O)N(C)[C@@H](CCCC)C(=O)N[C@@H](CC(=O)O)C(=O)N[C@@H](Cc1cccc2ccccc12)C(N)=O)C(=O)O)C(=O)O` [[68Ga]Ga-DOTA-CCK2R-dimer, metal not drawn] ({DOTA}-E([d(γGlu)-PEG4-Trp-NMeNle-Asp-1Nal-NH2])[d(γGlu)][PEG4]W[NMeNle]D[1Nal]-NH2), the pH-dependent lipophilicity (logD) in data set [2] was -3.01 ± 0.05.
